What all share (test): microbe, parasite or virus in culture
Type in all cases: cell-based

The subject of assay [1] is Staphylococcus aureus clinical isolate - animal. The settings on record: clinical isolate - animal; read-out: MIC S. aureus. Summed up:
(§1)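 Bacteria at a final 5 x 10^5 CFU/mL were incubated 20–24 h at 35 °C with DMSO-solubilized peptides serially diluted to 64–0.125 μg/mL in Mueller Hinton broth (± lysed horse blood, ± divalent cations). MIC read as no visible growth; bactericidal action from colony counts compared with the inoculum.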

The subject of assay [2] is Staphylococcus aureus ATCC 29213. The settings on record: ATCC 29213; read-out: MIC S. aureus ATCC. Summed up:
as §1

The test system of assay [3] is Pseudomonas aeruginosa clinical isolate - animal. The following applies: clinical isolate - animal. The method in brief:
as §1

For assay [4], the system named is Pseudomonas aeruginosa ATCC 27853. The settings on record: ATCC 27853; for MIC: read-out: MIC P. aeruginosa ATCC. Summed up:
as §1

The test system of assay [5] is Escherichia coli ATCC 25922. The settings on record: ATCC 25922. Summed up:
as §1

Assay [6] deals with Escherichia coli clinical isolate - animal. The following applies: clinical isolate - animal. Summed up:
as §1

In assay [7] the test system is Streptococcus pneumoniae ATCC 49619. The following applies: ATCC 49619; for MIC: read-out: MIC S. pneumoniae ATCC. Here is the method:
(§2) Antimicrobial testing of 78 cathelicidin MPs was performed in two phases as outlined in Figure 1 . In phase I, 40 peptides (27 extant and 13 ancestral) were selected for testing based on rank (outlined above) and similarity to published marsupial cathelicidins with known antimicrobial activity ([33], [41]–[43]). These peptides were tested against nine bacteria (Staphylococcus aureus ATCC 29213 and clinical isolate, Escherichia coli ATCC 25922 and clinical isolate, Pseudomonas aeruginosa ATCC 27853 and clinical isolate, Streptococcus agalactiae ATCC 12386 and clinical isolate, Streptococcus pneumoniae ATCC 49619) and three fungi (Candida krusei ATCC 6258, Candida parapsilosis ATCC 22019, and Candida albicans clinical isolate). Details regarding these strains are available in Supplementary Table 4 . The antimicrobial activity of cathelicidins was determined as the minimum inhibitory concentration (MIC), which was the lowest concentration of cathelicidin that prevented visible bacterial or fungal growth, relative to the negative control. […] Minimum bactericidal concentration (MBC) and/or minimum fungicidal concentration (MFC) was conducted to determine microbicidal versus static action. Activity against S. aureus ATCC, E. coli ATCC, and Pseudomonas aeruginosa ATCC 27853 was examined in the presence of divalent cations to determine the impact of inhibitors.
(§3) Antimicrobial activity was determined using a broth microdilution susceptibility assay in 96 well polypropylene plates according to Clinical Laboratory Standards Institute guidelines M07-A and M26A as described previously ([33], [42], [43]). The bacterial and fungal isolates from humans and animals used in this study are outlined in Supplementary Table 4 . Only yeasts were included in the panel of fungi as they have been used in the susceptibility testing of eutherian ([3], [81]–[83]) and other marsupial cathelicidins previously ([33], [42], [43]). Cathelicidin mature peptides were solubilized in DMSO and serially diluted in duplicate from 128-0.25μg/mL in a final volume of 100µL. For bacteria, cathelicidins were diluted in Mueller Hinton Broth (MHB) with or without 10% lysed horse blood, and with (MH II B) or without (MHB) calcium and magnesium cations. For fungi, cathelicidins were diluted in Roswell Park Memorial Institute medium (RPMI)-1640 MOPS. Ampicillin or tetracycline were included as a positive control for Gram-positive and -negative bacteria respectively, while amphotericin B was used for fungi. A media-only negative control and growth control (no cathelicidin) were also included on each plate. Bacteria were sub-cultured on Muller Hinton agar (MHA) or sheep blood agar (BA), and fungi on Sabouraud dextrose agar (SAB), 20–24 hours prior to the test. Colonies were suspended in saline, the concentration adjusted to a 0.5 McFarland standard, and then diluted in media to a concentration of 1.0 x 10^6 cells/mL. Then, 100μL was added to each well of the cathelicidin dilution plate, giving a final inoculum density of 5 x 10^5 CFU/mL and cathelicidin concentration of 64-0.125μg/mL. Colony counts were performed on MHA/BA/SAB to confirm inoculum density. All plates were incubated at 35°C for 20–24 hours, depending on the strain.
(§4) Colonies were counted and compared to the colony count of the starting inoculum.

The test system of assay [8] is Streptococcus agalactiae Clinical isolate - animal. The following applies: clinical isolate - animal; for MIC: read-out: MIC S. agalactiae. Here is the method:
as §2, §3, §4

Assay [9] deals with Streptococcus agalactiae ATCC 12386. The following applies: ATCC 12386; for MIC: read-out: MIC S. agalactiae ATCC. As to the method:
as §2, §3, §4

Setting [10] is: read-out: MIC in the presence of cations E. coli ATCC.

In brackets after ≈: the same amount, converted by molar mass. Where two headings read alike, the source gives them in different places. Where a SMILES comes first, the peptide text is derived from it. Where no end group is shown, it is not given here.

Regarding `CC[C@H](C)[C@H](NC(=O)[C@H](C)NC(=O)[C@H](CC(N)=O)NC(=O)[C@H](CCCCN)NC(=O)[C@H](Cc1ccccc1)NC(=O)[C@@H](NC(=O)[C@H](CC(=O)O)NC(=O)[C@H](CCCCN)NC(=O)[C@@H](NC(=O)[C@H](CCCCN)NC(=O)[C@H](CC(=O)O)NC(=O)[C@H](CO)NC(=O)[C@H](C)NC(=O)[C@H](CCCCN)NC(=O)[C@H](CCCCN)NC(=O)[C@H](CC(C)C)NC(=O)[C@H](CC(C)C)NC(=O)[C@H](CC(N)=O)NC(=O)[C@H](CCCCN)NC(=O)[C@@H](NC(=O)[C@H](CCCCN)NC(=O)[C@H](CCC(=O)O)NC(=O)[C@@H](NC(=O)[C@@H](NC(=O)[C@H](CCCNC(=N)N)NC(=O)[C@H](CC(C)C)NC(=O)[C@H](CCCNC(=N)N)NC(=O)[C@H](CCCCN)NC(=O)[C@@H](N)C(C)C)[C@@H](C)CC)C(C)C)[C@@H](C)CC)[C@@H](C)CC)[C@@H](C)O)C(=O)N[C@@H](CC(N)=O)C(=O)N[C@@H](CO)C(=O)N[C@@H](CC(C)C)C(=O)N[C@@H](CC(C)C)C(=O)N[C@@H](CO)C(=O)O` [MacroCath7] (H-VKRLRIVEKIKNLLKKASDKIKDTFKNAINSLLS-OH), the MIC in assay [1] is listed as more than 16.3 µM; in assay [2] it was more than 16.3 µM; in assay [3] (read-out: MIC P. aeruginosa) it was more than 16.3 µM; in assay [4], more than 16.3 µM; in [5] (read-out: MIC E. coli ATCC), 8.1 µM (≈ 31.8 µg/mL); in [5] (setting [10]), 8.1 µM. In addition, the MIC in assay [7], in assay [8] and in assay [9] was more than 16.3 µM throughout. The “MBC E. coli ATCC” value in assay [5] was found to be 16.3 µM (≈ 64 µg/mL). In addition, in assay [6], the “MBC E. coli” value was 16.3 (16.3)^16.3 µM. In assay [6], the “MIC E. coli” value is 16.3 (16.3)^16.3 µM. The “MIC in the presence of cations E. coli” value in assay [6] is given as 16.3 (16.3)^16.3 µM.
In the case of “KVKRGLWDSVKKKVSKFRNSIRRRVTSFKIGAADIRKGYSVA [BepeCath7]”, the MIC is recorded as more than 13.2 µM in assay [1]; more than 13.2 µM in assay [2]; more than 13.2 µM in assay [3] (read-out: MIC P. aeruginosa); more than 13.2 µM in assay [4]; 6.6 µM in assay [5] (read-out: MIC E. coli ATCC); 6.6 µM in [5] (setting [10]). Besides, the MIC is listed as 6.6 µM in [6], more than 13.2 µM in assay [7], more than 13.2 µM in [8] and more than 13.2 µM in assay [9]. The “MBC E. coli ATCC” value in assay [5] was determined as 13.2 µM. Moreover, the “MBC E. coli” value in assay [6] came out at 13.2 µM. The “MIC in the presence of cations E. coli” value in assay [6] was 6.6 µM.
With `CC[C@H](C)[C@H](NC(=O)[C@H](CC(=O)O)NC(=O)[C@H](CCCNC(=N)N)NC(=O)[C@H](CC(C)C)NC(=O)[C@H](CCCCN)NC(=O)[C@H](CCCNC(=N)N)NC(=O)[C@H](Cc1ccc(O)cc1)NC(=O)[C@H](CCCCN)NC(=O)[C@H](CCC(=O)O)NC(=O)[C@H](CC(C)C)NC(=O)[C@H](CC(C)C)NC(=O)[C@@H](NC(=O)[C@H](CCCNC(=N)N)NC(=O)[C@H](Cc1ccc(O)cc1)NC(=O)[C@H](CCCCN)NC(=O)[C@H](CCC(N)=O)NC(=O)[C@H](Cc1ccc(O)cc1)NC(=O)[C@@H](NC(=O)[C@H](CC(C)C)NC(=O)[C@@H](N)CC(N)=O)[C@@H](C)CC)[C@@H](C)CC)C(=O)N[C@@H](Cc1ccccc1)C(=O)N[C@@H](CO)C(=O)NCC(=O)O` [MAP6] (H-NLIYQKYRILLEKYRKLRDIFSG-OH), the MIC in assay [1], in assay [2], in assay [3] (read-out: MIC P. aeruginosa), in [4], in assay [7] and in [8] was more than 21.8 µM throughout. In addition, the MIC in assay [9] was more than 21.8 µM. For the same compound, in assay [5], the “MBC E. coli ATCC” value is 10.9 (10.9)^10.9 µM. Moreover, the “MIC E. coli ATCC” value in assay [5] was 10.9 (10.9)^10.9 µM. In addition, in assay [5], the “MIC in the presence of cations E. coli ATCC” value is given as 10.9 (10.9)^10.9 µM. For the same compound, the “MBC E. coli” value in assay [6] is recorded as 10.9 (10.9)^10.9 µM. For the same compound, in [6], the “MIC E. coli” value was 10.9 (10.9)^10.9 µM. Moreover, in assay [6], the “MIC in the presence of cations E. coli” value is listed as 10.9 (10.9)^10.9 µM.
For the compound `CC[C@H](C)[C@H](NC(=O)[C@H](C)NC(=O)[C@H](CC(N)=O)NC(=O)[C@H](CCCCN)NC(=O)[C@H](CC(C)C)NC(=O)[C@@H](NC(=O)[C@H](CC(N)=O)NC(=O)[C@H](CCCCN)NC(=O)[C@@H](NC(=O)[C@H](CCCCN)NC(=O)[C@H](CC(=O)O)NC(=O)CNC(=O)[C@H](C)NC(=O)[C@H](CCCCN)NC(=O)[C@H](CCCCN)NC(=O)[C@H](CC(C)C)NC(=O)[C@H](CC(C)C)NC(=O)[C@H](CC(N)=O)NC(=O)[C@H](CCCCN)NC(=O)[C@H](Cc1ccccc1)NC(=O)[C@H](CCCCN)NC(=O)[C@H](CCC(=O)O)NC(=O)[C@H](Cc1ccccc1)NC(=O)[C@@H](NC(=O)[C@H](CCCNC(=N)N)NC(=O)[C@H](CC(C)C)NC(=O)[C@H](CCCNC(=N)N)NC(=O)[C@@H](N)CCCCN)[C@@H](C)CC)[C@@H](C)CC)[C@@H](C)O)C(=O)N[C@@H](CC(N)=O)C(=O)NCC(=O)N[C@@H](CC(C)C)C(=O)N[C@@H](CC(C)C)C(=O)N[C@@H](CO)C(=O)N1CCC[C@H]1C(=O)N[C@H](C(=O)NCC(=O)N[C@@H](CCCNC(=N)N)C(=O)O)[C@@H](C)CC` [MAP7] (H-KRLRIFEKFKNLLKKAGDKIKNTLKNAINGLLSPIGR-OH), the MIC in assay [1] is more than 15.1 µM. In addition, the MIC in [2] was more than 15.1 µM. Besides, the “MBC P. aeruginosa” value in [3] is listed as 64 µg/mL (≈ 15.1 µM). Also, the MIC in assay [3] (read-out: MIC P. aeruginosa) turned out to be 7.5 µM (≈ 31.8 µg/mL). Also, the MIC in assay [3] (read-out: MIC in the presence of cations P. aeruginosa) was 7.5 µM. In assay [4], the “MBC P. aeruginosa ATCC” value was 7.5 (7.5)^7.5 µM, the “MIC P. aeruginosa ATCC” value is on record as 7.5 (7.5)^7.5 µM and the “MIC in the presence of cations P. aeruginosa ATCC” value was 7.5 (7.5)^7.5 µM. Further, the “MBC E. coli ATCC” value in [5] is on record as 3.7 µM (≈ 15.7 µg/mL). Besides, the MIC in [5] (read-out: MIC E. coli ATCC) is listed as 1.8 µM (≈ 7.63 µg/mL). The MIC in assay [5] (setting [10]) came to 1.8 µM. Further, in [6], the “MBC E. coli” value is 3.7 (3.7)^3.7 µM, the “MIC E. coli” value is on record as 3.7 (3.7)^3.7 µM and the “MIC in the presence of cations E. coli” value is given as 3.7 (3.7)^3.7 µM. In addition, in [7], the MBC S. pneumoniae ATCC was 7.5 µM (≈ 31.8 µg/mL) and the MIC S. pneumoniae ATCC turned out to be 7.5 µM (≈ 31.8 µg/mL). In assay [8], this compound yielded an MBC S. agalactiae of 15.1 µM (≈ 64 µg/mL) and an MIC S. agalactiae of 15.1 µM (≈ 64 µg/mL). For the same compound, in assay [9], the MBC S. agalactiae ATCC came to 15.1 µM (≈ 64 µg/mL) and the MIC S. agalactiae ATCC worked out at 15.1 µM (≈ 64 µg/mL).
